In ChEMBL document CHEMBL1828567, “2-Phenyl and 2-heterocyclic-4-(3-(pyridin-2-yl)-1H-pyrazol-4-yl)pyridines as inhibitors of TGF-β1 and activin A signalling” (Bioorg Med Chem Lett, 2011) one finds IC50 data, which are given here for 7 compounds.

Structures are written as SMILES. Bounds are passed on as bounds.

The target in one assay is T1, Activin receptor type-1B (Homo sapiens, UniProt P36896).
T1 sequence (P36896 whole entry): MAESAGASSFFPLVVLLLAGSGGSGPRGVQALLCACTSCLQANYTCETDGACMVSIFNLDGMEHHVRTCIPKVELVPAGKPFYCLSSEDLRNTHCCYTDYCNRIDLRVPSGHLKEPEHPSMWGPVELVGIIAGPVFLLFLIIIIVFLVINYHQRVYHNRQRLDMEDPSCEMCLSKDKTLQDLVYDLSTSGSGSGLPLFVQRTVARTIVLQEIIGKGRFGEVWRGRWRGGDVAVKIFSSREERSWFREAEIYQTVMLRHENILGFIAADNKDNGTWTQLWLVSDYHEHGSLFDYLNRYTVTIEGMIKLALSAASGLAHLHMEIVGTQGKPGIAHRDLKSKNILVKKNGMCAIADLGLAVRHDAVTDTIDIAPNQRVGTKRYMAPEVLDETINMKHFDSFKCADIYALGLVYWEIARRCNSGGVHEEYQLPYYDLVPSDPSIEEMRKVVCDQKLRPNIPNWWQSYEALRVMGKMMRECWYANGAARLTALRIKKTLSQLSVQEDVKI
The experiment in a line: Inhibition of Activin A in human HEK293 cells transfected with luciferase and FAST-2 gene expression vector A3-LUX after 16 hrs by luciferase reporter gene assay. It counts as cell-based.
Take `O=C(NC1CCOCC1)c1ccc(-c2cc(-c3c[nH]nc3-c3ccccn3)ccn2)cc1`: the IC50 was > 1000 nM.

The target in a further assay is T2, TGF-beta receptor type-1 (Homo sapiens, UniProt P36897).
T2 sequence (P36897 whole entry): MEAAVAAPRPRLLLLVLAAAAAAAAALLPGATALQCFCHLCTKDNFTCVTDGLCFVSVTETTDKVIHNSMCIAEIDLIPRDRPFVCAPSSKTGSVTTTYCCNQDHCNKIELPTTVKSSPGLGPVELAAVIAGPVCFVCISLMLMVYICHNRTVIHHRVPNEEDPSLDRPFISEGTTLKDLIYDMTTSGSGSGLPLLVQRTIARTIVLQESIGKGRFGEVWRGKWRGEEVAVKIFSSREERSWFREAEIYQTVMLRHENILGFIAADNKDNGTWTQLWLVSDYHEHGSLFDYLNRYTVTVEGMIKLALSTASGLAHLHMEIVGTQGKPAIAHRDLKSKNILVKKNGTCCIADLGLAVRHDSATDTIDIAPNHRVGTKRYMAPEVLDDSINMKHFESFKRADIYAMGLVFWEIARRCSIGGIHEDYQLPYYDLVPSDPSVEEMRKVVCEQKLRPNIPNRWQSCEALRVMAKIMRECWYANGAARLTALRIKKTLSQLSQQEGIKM
The experiment in a line: Inhibition of TGF-beta1 signaling in human HEK293 cells transfected with luciferase and FAST-2 gene expression vector A3-LUX after 16 hrs by luciferase reporter gene assay. It counts as cell-based.
Consider `c1ccc(-c2n[nH]cc2-c2ccnc(-n3ccnc3)c2)nc1`, for which the IC50 worked out at 88 nM. In other words, the double-digit nanomolar range.
Still for that read-out and setting: for `CN(C)CCOc1ccc(-c2cc(-c3c[nH]nc3-c3ccccn3)ccn2)cc1` the value was 19 nM; for `CN1CCN(c2ccc(-c3cc(-c4c[nH]nc4-c4ccccn4)ccn3)cn2)CC1`, 32 nM.
Same read-out and setting: under `c1ccc(-c2n[nH]cc2-c2ccnc(-n3cccn3)c2)nc1` stands 77 nM.
Still for that read-out and setting: under `Cn1cc(-c2cc(-c3c[nH]nc3-c3ccccn3)ccn2)cn1` stands 68 nM.
As for `CN(C)CCCOc1ccc(-c2cc(-c3c[nH]nc3-c3ccccn3)ccn2)cn1`, half-maximal inhibition (IC50) required 11 nM.
